This passage reports activation, EC50 and Emax results from patent US8119624B2, “Fused phenyl amido heterocyclic compounds” (Pfizer Inc., priority 2006, dated 2012).

This test addresses T1, Full-length glucokinase (beta cell isoform) (Homo sapiens, UniProt P35557).
T1 construct: Full-length glucokinase (beta cell isoform) was His-tagged at N-terminus; His tag (N); made in house
T1 sequence (P35557 1-465): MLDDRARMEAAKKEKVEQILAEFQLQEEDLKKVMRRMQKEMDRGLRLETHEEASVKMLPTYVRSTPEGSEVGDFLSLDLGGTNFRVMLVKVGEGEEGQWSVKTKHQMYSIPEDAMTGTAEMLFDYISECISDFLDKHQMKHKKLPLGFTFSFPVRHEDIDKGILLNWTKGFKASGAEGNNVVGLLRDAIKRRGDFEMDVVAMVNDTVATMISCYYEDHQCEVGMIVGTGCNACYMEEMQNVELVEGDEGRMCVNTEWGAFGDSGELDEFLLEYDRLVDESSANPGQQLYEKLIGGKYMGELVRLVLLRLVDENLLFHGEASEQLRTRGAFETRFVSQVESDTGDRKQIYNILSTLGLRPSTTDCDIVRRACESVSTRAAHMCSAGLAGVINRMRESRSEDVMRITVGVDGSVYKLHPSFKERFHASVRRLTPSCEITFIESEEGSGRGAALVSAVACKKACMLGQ
Kind of test: Glucokinase biochemical assay (PK/LDH-coupled, NADH depletion at 340 nm): % activation, EC50, % max activation. The conditions noted are these: 5 mM glucose; for activation at 10 µM: 10 uM compound, % Activation=(Va/Vo−1)×100, read-out: % Activation at 10 uM; for EC50: GK activation, read-out: EC50; for Emax: fitted maximum activation, read-out: % Max Activation. A digest of the protocol:
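N-terminally His-tagged full-length human beta-cell glucokinase, room temperature, 5 mM glucose, 1 mM ATP, PK/LDH-coupled with 0.7 mM NADH, 1% DMSO final. Initial velocity from the 200–900 s slope of A340 decline. % activation = (Va/Vo−1)×100, measured across compound concentrations.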

Usually EC50 stands for the concentration giving half of the maximal effect. `Cn1ccc(NC(=O)c2cc(Oc3ccc(C(=O)N4CC[C@@H](F)C4)c(F)c3)c3c(c2)OC(C)(C)C3)n1` [Example 58, 4-[3-Fluoro-4-((R)-3-fluoro-pyrrolidine-1-carbonyl)-phenoxy]-2,2-dimethyl-2,3-dihydro-benzofuran-6-carboxylic acid(1-methyl-1H-pyrazol-3-yl)-amide]: the activation at 10 µM came to 55.3%, the EC50 came to 75 nM and the Emax came out at 88%.
For `CO[C@@H]1CCN(C(=O)c2ccc(Oc3cc(C(=O)Nc4ccn(C)n4)cc4c3CC(C)(C)O4)cc2F)C1` [Example 59, 4-[3-Fluoro-4-((R)-3-methoxy-pyrrolidine-1-carbonyl)-phenoxy]-2,2-dimethyl-2,3-dihydro-benzofuran-6-carboxylic acid(1-methyl-1H-pyrazol-3-yl)-amide], in that order: 172%, 250 nM and 168%.
On the same counts, the results for `CO[C@H]1CCN(C(=O)c2ccc(Oc3cc(C(=O)Nc4ccn(C)n4)cc4c3CC(C)(C)O4)cc2F)C1` [Example 60, 4-[3-Fluoro-4-((S)-3-methoxy-pyrrolidine-1-carbonyl)-phenoxy]-2,2-dimethyl-2,3-dihydro-benzofuran-6-carboxylic acid(1-methyl-1H-pyrazol-3-yl)-amide] are 172%, 270 nM and 167%.
Take `Cn1ccc(NC(=O)c2cc(Oc3ccc(C(=O)N4CCCCC4)c(F)c3)c3c(c2)OC(C)(C)C3)n1` [Example 61, 4-[3-Fluoro-4-(piperidine-1-carbonyl)-phenoxy]-2,2-dimethyl-2,3-dihydro-benzofuran-6-carboxylic acid(1-methyl-1H-pyrazol-3-yl)-amide]: the activation at 10 µM was found to be 109%, the EC50 stood at 100 nM and the Emax stood at 107%.
On the same counts, the results for `Cn1ccc(NC(=O)c2cc(Oc3ccc(C(=O)N4CC[C@H](O)C4)c(F)c3)c3c(c2)OC(C)(C)C3)n1` [Example 62, 4-[3-Fluoro-4-((S)-3-hydroxy-pyrrolidine-1-carbonyl)-phenoxy]-2,2-dimethyl-2,3-dihydro-benzofuran-6-carboxylic acid(1-methyl-1H-pyrazol-3-yl)-amide] are 153%, 700 nM and 165%.
As to `Cn1ccc(NC(=O)c2cc(Oc3ccc(C(=O)N4CC[C@H](F)C4)c(F)c3)c3c(c2)OC(C)(C)C3)n1` [Example 63, 4-[3-Fluoro-4-((S)-3-fluoro-pyrrolidine-1-carbonyl)-phenoxy]-2,2-dimethyl-2,3-dihydro-benzofuran-6-carboxylic acid(1-methyl-1H-pyrazol-3-yl)-amide], the activation at 10 µM came out at 170%, the EC50 was 230 nM and the Emax is 158%.
`COCCN(C)C(=O)c1ccc(Oc2cc(C(=O)Nc3ccn(C)n3)cc3c2CC(C)(C)O3)cc1F` [Example 64, 4-{3-Fluoro-4-[(2-methoxy-ethyl)-methyl-carbamoyl]-phenoxy}-2,2-dimethyl-2,3-dihydro-benzofuran-6-carboxylic acid(1-methyl-1H-pyrazol-3-yl)-amide]: the activation at 10 µM was 172%, the EC50 worked out at 270 nM and the Emax is 158%.
As for `Cn1ccc(NC(=O)c2cc(Oc3ccc(C(=O)Nc4ccn(C)n4)c(F)c3)c3c(c2)OC(C)(C)C3)n1` [Example 65, 4-[3-Fluoro-4-(1-methyl-1H-pyrazol-3-ylcarbamoyl)-phenoxy]-2,2-dimethyl-2,3-dihydro-benzofuran-6-carboxylic acid(1-methyl-1H-pyrazol-3-yl)-amide], the activation at 10 µM amounted to 147%, the EC50 was 240 nM and the Emax is 141%.
For `CN(CCO)C(=O)c1ccc(Oc2cc(C(=O)Nc3ccn(C)n3)cc3c2CC(C)(C)O3)cc1F` [Example 66, 4-{3-Fluoro-4-[(2-hydroxy-ethyl)-methyl-carbamoyl]-phenoxy}-2,2-dimethyl-2,3-dihydro-benzofuran-6-carboxylic acid(1-methyl-1H-pyrazol-3-yl)-amide], in that order: 149%, 410 nM and 168%.
In the case of `CN(CC#N)C(=O)c1ccc(Oc2cc(C(=O)Nc3ccn(C)n3)cc3c2CC(C)(C)O3)cc1F` [Example 67, 4-[4-(Cyanomethyl-methyl-carbamoyl)-3-fluoro-phenoxy]-2,2-dimethyl-2,3-dihydro-benzofuran-6-carboxylic acid(1-methyl-1H-pyrazol-3-yl)-amide], the activation at 10 µM was found to be 131%, the EC50 was determined as 66 nM and the Emax turned out to be 130%.
Consider `COCCNC(=O)c1ccc(Oc2cc(C(=O)Nc3ccn(C)n3)cc3c2CC(C)(C)O3)cc1F` [Example 68, 4-[3-Fluoro-4-(2-methoxy-ethylcarbamoyl)-phenoxy]-2,2-dimethyl-2,3-dihydro-benzofuran-6-carboxylic acid(1-methyl-1H-pyrazol-3-yl)-amide], for which the activation at 10 µM was determined as 146%, the EC50 was 660 nM and the Emax stood at 175%.
Consider `CNC(=O)c1ccc(Oc2cc(C(=O)Nc3ccn(C)n3)cc3c2CC(C)(C)O3)cc1F` [Example 69, 4-(3-Fluoro-4-methylcarbamoyl-phenoxy)-2,2-dimethyl-2,3-dihydro-benzofuran-6-carboxylic acid(1-methyl-1H-pyrazol-3-yl)-amide], for which the activation at 10 µM worked out at 122%, the EC50 was found to be 370 nM and the Emax stood at 129%.
Regarding `CCNC(=O)c1ccc(Oc2cc(C(=O)Nc3ccn(C)n3)cc3c2CC(C)(C)O3)cc1F` [Example 70, 4-(4-Ethylcarbamoyl-3-fluoro-phenoxy)-2,2-dimethyl-2,3-dihydro-benzofuran-6-carboxylic acid(1-methyl-1H-pyrazol-3-yl)-amide], the activation at 10 µM was 132%, the EC50 was 150 nM and the Emax worked out at 118%.
`CC(C)NC(=O)c1ccc(Oc2cc(C(=O)Nc3ccn(C)n3)cc3c2CC(C)(C)O3)cc1F` [Example 71, 4-(3-Fluoro-4-isopropylcarbamoyl-phenoxy)-2,2-dimethyl-2,3-dihydro-benzofuran-6-carboxylic acid(1-methyl-1H-pyrazol-3-yl)-amide]: the activation at 10 µM turned out to be 181%, the EC50 was found to be 410 nM and the Emax is 167%.
Regarding `Cn1ccc(NC(=O)c2cc(Oc3ccc(C(=O)NCCO)c(F)c3)c3c(c2)OC(C)(C)C3)n1` [Example 72, 4-[3-Fluoro-4-(2-hydroxy-ethylcarbamoyl)-phenoxy]-2,2-dimethyl-2,3-dihydro-benzofuran-6-carboxylic acid(1-methyl-1H-pyrazol-3-yl)-amide], the activation at 10 µM is 182%, the EC50 is 950 nM and the Emax stood at 161%.
For `Cn1ccc(NC(=O)c2cc(Oc3ccc(C(=O)NC4CC4)c(F)c3)c3c(c2)OC(C)(C)C3)n1` [Example 73, 4-(4-Cyclopropylcarbamoyl-3-fluoro-phenoxy)-2,2-dimethyl-2,3-dihydro-benzofuran-6-carboxylic acid(1-methyl-1H-pyrazol-3-yl)-amide], in that order: 254%, 390 nM and 232%.
